Results reported in US20090142416A1, “Methods for the treatment of HIV and other viruses” (priority 2003, published 2009).
Entries after “also recorded” stand apart in the source; their conditions may differ. Where two headings read alike, the source gives them in different places.

How the values were obtained:
[1] = tested on: murine leukemia virus (MULV); conditions: for mice that died during the treatment period / survival rate at 21 days: 12 mice per group; for mice that died during the treatment period: days 6 and 14; for survival rate at 21 days / post-treatment CD4/CD8 ratio: 72 feet; for survival rate at 21 days: 2 hours daily; for post-treatment CD4/CD8 ratio / post-treatment CD4 count (FACS): 2 hours, versus post-treatment control; for post-treatment CD4/CD8 ratio: six days a week, three weeks; for overall effect relative to control conditions: 72 ft for 2 hours, 6 days per week; for hypocellular medullary sinuses of lymph nodes: H&E histology after three-week treatment; for spleen size / lymph node size: after three-week treatment; for spleen size: N2 and air versus control and oxygen; for lymph node size: area = length times width of cut node; for post-treatment CD4 count (FACS): orbital blood, 72 feet of seawater, six days a week for three weeks; for lymph node architecture: after 21 days of treatment; for physical condition / grooming: versus control and oxygen groups
Procedure: FIG. 5A represents the cross section of an actual lymph node removed from a mouse that took part in a study of the present method. […] As a result of the observations on divers in Puerto Rico, it was decided to first test this concept in murine leukemia virus-MULV mice exposed to increased pressures of nitrogen at a depth of 72 feet for 2 hours 6 days per week for 3 weeks. […] The murine model, AKR-J strain of mice which are viremic from birth, were used to test the hypotheses. The animal model was chosen because of its striking similarities to human AIDS. […] The mice were separated at random into four groups of 12 mice in each group. Group 1 was control. Group 2 was exposed to air at sea level pressure. Group 3 was exposed to N2 and Group 4 to O2 under the following conditions. The mice were placed in a small (5.88 cubic feet), temperature controlled hyperbaric chamber and compressed with Air, N2+6.5% O2 or 100% O2. Groups were taken separately to a pressure of 72 feet of seawater. The animals reached maximum treatment pressure in 6-7 minutes and remained at this pressure for 2 hours. They were then returned to normal barometric pressure at a rate of one foot per minute (72 minutes). This process was performed each day for six days a week for three weeks. The control group of animals (Group 1) was exposed to normal surface conditions for the same period of time.
Cytological and histological measurements. Pre- and post-flow cytometry (FACS) analysis was performed on samples of orbital blood from 10 animals in each group labeled with anti-mouse CD4/CD8 fluorescence markers. Animals were anesthetized using methoxyflurane and blood was collected with a heparinized Pasteur pipette. Lymphocytes were stained with anti CD4-PE and anti CD8-FITC (Pharmingen) for 15 minutes. Erythrocytes were hemolyzed in lysis solution (Becton Dickinson) for 10 minutes, washed with PBS/azide solution, centrifuged and the supernatant was discarded. The pellet was fixed with 1% formalin in PBS, and stored at 4° C. until cytometry (Becton Dickinson FACS Scan; San Jose, Calif.). At the end of the three-week treatment period, blood samples were obtained and the mice were sacrificed. The lymph nodes, spleen, thymus, liver and brain tissue were collected immediately placed in 10% formalin. Following fixation and routine paraffin processing, 4 μm sections of lymph nodes were obtained after cutting randomly selected nodes through the center parallel to the long axis of the node. The slides were stained with hematoxylin and eosin (H&E) and reviewed by a pathologist that was blinded to knowledge of animal treatment groups. The presence of secondary follicles and paracortical expansion were quantitated for each animal as a percentage of lymph nodes. As medullary sinuses were not present in every lymph node profile, the presence of medullary sinus hypocellularity was quantitated as a percentage of lymph nodes which contained sinuses. In addition the approximate surface area of the cut node was computed from the product of the length and width in its maximum dimensions. The remaining tissues were examined qualitatively for pathological changes.
FIG. 6 is bar chart showing the average size of lymph nodes taken from the mice of different groups in the study discussed above. The lymph nodes were taken from the cervical, thoracic, and abdominal regions and fixed in 10% formalin. The nodes were then sectioned through the center of the long axis, and area was computed as the product of length times width.

[2] = cited from earlier work
[3] = listed as Mixtures with enriched nitrogen

O=O [O2, oxygen, reference compound]
mice that died during the treatment period [1]: Two
mice that died during the treatment period ([1]; listed as oxygen): two
survival rate at 21 days [1]: 83%
post-treatment CD4/CD8 ratio [1]: significantly lower
post-treatment CD4/CD8 ratio ([1]; listed as hyperbaric oxygen): significantly decreased
post-treatment CD4/CD8 ratio ([1]; listed as oxygen): significantly lower
overall effect relative to control conditions ([1]; listed as Oxygen): significant negative effect
overall effect relative to control conditions ([1]; listed as hyperbaric oxygen): no beneficial effect
overall effect relative to control conditions ([1]; listed as oxygen): fared worse than the control group
hypocellular medullary sinuses of lymph nodes [1]: significantly more hypocellular sinuses
spleen size [1]: much bigger
lymph node size [1]: much bigger
post-treatment CD4 count (FACS) ([1]; listed as hyperbaric oxygen): significantly decreased

[N-]=[N+]=O [nitrous oxide]
anesthetic effect ([2]; 90% N2O and 10% O2 at atmospheric pressure (760 mmHg)): many subjects do not even lose consciousness
anesthetic effect ([2]; 1520 mmHg or 2 atmospheres absolute (1368 mmHg N2O+125 mmHg oxygen)): deep anesthesia

N#N [N2, nitrogen]
survival rate at 21 days [1]: 100%
post-treatment CD4/CD8 ratio [1]: significantly higher
post-treatment CD4/CD8 ratio [1, 3]: increased
hypocellular medullary sinuses of lymph nodes [1]: significantly more hypocellular sinuses were present in the control group and the O2 group than in the N2 and Air groups; also recorded: significant differences in sinus cellularity
lymph node architecture [1]: improved lymph node architecture
lymph node architecture [1, 3]: preserved
spleen size [1]: smaller by about one third
lymph node size [1]: smaller
lymph node size ([1]; listed as hyperbaric N2): significantly attenuated the lymphadenopathy
lymph node size ([1]; listed as nitrogen): significant reduction
number of nodes with paracortical expansion ([1]; lymph node histology): reduction
number of nodes with secondary follicles ([1]; lymph node histology): reduction
number of sinuses with histiocytes ([1]; lymph node histology): increase
post-treatment CD4 count (FACS) [1]: increased and were significantly higher than post-treatment CD4 count in control animals
post-treatment CD4 count (FACS) ([1]; listed as hyperbaric N2): improved CD4 counts
physical condition / grooming [1]: better grooming
physical condition / grooming [1, 3]: improved
physical condition / grooming ([1]; listed as nitrogen): appeared physically more healthy; also recorded: improved physical condition
